We go through 5 compounds from paper PMC9413514, “Accessing Lipophilicity and Biomimetic Chromatography Profile of Biologically Active Ingredients of Botanicals Used in the Treatment of Inflammatory Bowel Disease” (Pharmaceuticals, 2022).

The nature of the data set: Miniaturized shake-flask method (n-octanol/PBS pH 7.4) with HPLC analysis. It is filed as physicochemical. The following applies: for logD at 1 h: n-octanol/PBS 20 mM pH 7.4, 25 °C, spread is RSD in %, read-out: log D7.4 ± RSD (%) (n = 3); for Δ log D7.4 (lower than curcumin): compared to curcumin. As for the experimental part: Stock solution of biologically active ingredients of botanicals used in IBD treatment were prepared using dimethylsulfoxide in concentration of 2 mg/mL. Working solutions were prepared daily by dilution of the stock solutions with PBS (20 mM, pH 7.4) pre-saturated with n-octanol. Before the injection into the HPLC system all solutions were sonicated for 15 min at room temperature in Elmasonic XtraTT (Elma Schmidbauer, Singen, Germany) and filtered through 0.2 μm polyethersulfone filters (Obrnuta faza, Pazin, Croatia).
The pre-saturated solutions of n-octanol and PBS (20 mM, pH 7.4) were used for determination of logarithm of distribution coefficient (log D7.4). The n-octanol and aqueous phase (mixture 1:1, v/v) were mutually saturated for 24 h in an orbital shaker-incubator ES-20/60 (Biosan, Riga, Latvia) at 100 oscillations per min at 25.0 ± 0.1 °C. The prepared mixture was left resting for at least 12 h in the thermostat at 25.0 ± 0.1 °C to ensure complete separation of the two phases. Until analysis, separated saturated solutions were kept in refrigerator at 4 °C.
Shake-flask procedure was conducted in amber 2 mL HPLC vials. 300 μL of the working solution was added to 1500 μL of n-octanol pre-saturated with PBS. To prevent material loss due to volatilisation, the two-phase system nearly filled the entire volume of the test vessels. All n-octanol–buffer mixtures were first vortexed for 1 min and then shaken for 1 h (150 oscillations per min) at room temperature (25.0 ± 0.1 °C) to reach equilibrium and phase distribution. Afterward, the samples were centrifuged using a Z 326 K tabletop centrifuge (HERMLE Labortechnik, Wehingen, Germany) for 30 min at 4000× g and 25 °C to ensure that possible emulsions were removed.
After equilibration and phase separation, the aqueous phase of all samples was analysed on an Agilent HPLC 1100 (Agilent Technologies, Waldbronn, Germany) with diode array detection. Analysis was conducted with a Zorbax SB C18 column (length 150 mm, i.d. 4.6 mm, particle size 5 μm) by Agilent Technologies. 10 min chromatographic runs were performed at 25.0 ± 0.1 °C in isocratic mode using a methanol/water mixture (60/40, v/v) with addition of 0.1% of formic acid as mobile phase modifier at a flow rate of 1.0 mL/min. The mobile phase was filtered through a membrane filter, no. 66, diameter 47 mm, pore size 0.45 µm (Supelco, Bellefonte, PA, USA). The vials were placed in the rack on the autosampler at 25 °C. The injection volume was 10 µL, with a needle offset of 0.5 mm. To avoid any carryover of the analyte-containing n-octanol phase, the outside of the syringe was subsequently washed in methanol before injection. The absorbance of the analytes during a chromatographic run was collected in the spectral range 200–400 nm, and the detection wavelength for each analyte was the one providing the maximum peak height.

SMILES strings stand for the structures.

`C=C1CC[C@@H]2[C@](C)(CO)[C@H](O)CC[C@@]2(C)[C@@H]1C/C=C1/C(=O)OC[C@H]1O` [Andrographolide, andrographolide]: the logD at 1 h came to 1.32.

As to `O=C(/C=C/C=C/c1ccc2c(c1)OCO2)N1CCCCC1` [Piperine, piperine], the logD at 1 h amounted to 1.67.

As to `C=C1CC[C@@H]2[C@](C)(CO[C@@H]3O[C@H](CO)[C@@H](O)[C@H](O)[C@H]3O)CCC[C@@]2(C)[C@@H]1CCC1=CCOC1=O` [Neoandrographolide, neoandrographolide], the logD at 1 h was determined as 1.51. Besides, the “Δ log D7.4 (increase compared to andrographolide)” value (compared to andrographolide) was determined as 0.19 units.

On to `COc1cc(/C=C/C(=O)CC(=O)/C=C/c2ccc(O)cc2)ccc1O` [Demetoxycurcumin, demetoxycurcumin], for which the “Δ log D7.4 (lower than curcumin)” value is 0.42 units and the logD at 1 h was 1.52.

Regarding `O=C(C=Cc1ccc(O)cc1)CC(=O)C=Cc1ccc(O)cc1` [Bisdemetoxycurcumin, bisdemetoxycurcumin], the “Δ log D7.4 (lower than curcumin)” value was determined as 0.22 units and the logD at 1 h was determined as 1.72.
